Assay results taken from ChEMBL document CHEMBL1125372, “Crystal-structure-based design and synthesis of benz[cd]indole-containing inhibitors of thymidylate synthase” (J Med Chem, 1992).

Experiments:
CCRF-CEM = assay: Inhibition of cellular growth by the MTT colorimetric assay in CCRF-CEM, human lymphoblasticof T-cell origin
GC3/MTK- = assay: Inhibition of cellular growth by the MTT colorimetric assay in GC3/M TK-, a human thymidine kinase deficient adenocarcinoma line
L1210 = assay: Inhibition of cellular growth by the MTT colorimetric assay in L1210, murine leukemia cell line; settings: Mus musculus
[1] = target: Thymidylate synthase (Escherichia coli) (UniProt C3SWJ7)
Sequence of Thymidylate synthase (Escherichia coli) (C3SWJ7 1-264): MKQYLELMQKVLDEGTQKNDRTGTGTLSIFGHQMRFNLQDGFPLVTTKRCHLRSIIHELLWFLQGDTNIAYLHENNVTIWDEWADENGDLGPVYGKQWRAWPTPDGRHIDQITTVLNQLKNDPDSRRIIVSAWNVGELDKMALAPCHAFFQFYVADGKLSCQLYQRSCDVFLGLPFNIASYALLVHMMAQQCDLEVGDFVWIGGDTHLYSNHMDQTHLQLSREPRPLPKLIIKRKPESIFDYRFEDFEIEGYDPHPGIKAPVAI
Description: Inhibitory activity against thymidylate synthase from Escherichia coli

[2] = target: Thymidylate synthase (Escherichia coli) (UniProt C3SWJ7); remark: listed apart in the source
Description: Compound was evaluated for its inhibitory activity against thymidylate synthase from Escherichia coli

[3] = Compound was evaluated for thymidylate shift expressed as the ratio of the IC50 in the presence of […] uM thymidylate divided by the IC50 with no thymidylate added
[4] = target: Thymidylate synthase (Homo sapiens) (UniProt P04818)
Sequence of Thymidylate synthase (Homo sapiens) (P04818 2-313 limits assumed): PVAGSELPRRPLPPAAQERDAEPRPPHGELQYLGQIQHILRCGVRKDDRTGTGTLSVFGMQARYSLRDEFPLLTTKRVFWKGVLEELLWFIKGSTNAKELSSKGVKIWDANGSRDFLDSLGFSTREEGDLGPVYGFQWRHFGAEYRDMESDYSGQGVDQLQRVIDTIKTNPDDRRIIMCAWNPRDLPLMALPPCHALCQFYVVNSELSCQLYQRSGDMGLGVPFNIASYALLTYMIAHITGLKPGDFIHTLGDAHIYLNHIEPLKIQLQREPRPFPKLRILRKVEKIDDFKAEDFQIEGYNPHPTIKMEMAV
Description: (§1) Inhibitory activity against thymidylate synthase from human

[5] = target: Thymidylate synthase (Homo sapiens) (UniProt P04818); remark: listed apart in the source
Description: as §1

SMILES	IC50 (CCRF-CEM) [nM]	IC50 (L1210) [nM]	Kii [1] [µM]	Kis [2] [µM]	Thymidylate shift [3]	Kii [4] [µM]	Kis [5] [µM]	IC50 (GC3/MTK-) [nM]
Cc1ccc2c3c(ccc(N(C)Cc4ccc(S(=O)(=O)N5CCOCC5)cc4)c13)N=C2N	220	220	–	–	–	–	–	440
CCN(Cc1ccc(S(=O)(=O)c2ccccc2)cc1)c1ccc2c3c(cccc13)C(N)=N2	1250	700	–	–	–	–	–	3000
CN(Cc1ccc(S(=O)(=O)N2CCOCC2)cc1)c1ccc2c3c(ccc(Cl)c13)C(N)=N2	900	440	–	–	–	–	–	1400
Cc1ccc2c3c(ccc(N(C)Cc4ccc(S(=O)(=O)c5ccccc5)cc4)c13)NC2=O	4800	1900	–	–	–	–	–	> 5000
COc1ccc(S(=O)(=O)c2ccc(CN(C)c3ccc4c5c(ccc(C)c35)C(N)=N4)cc2)cc1	400	310	–	–	–	–	–	970
CSCN(Cc1ccc(S(=O)(=O)c2ccccc2)cc1)c1ccc2c3c(cccc13)C(=O)N2	2800	2100	–	–	–	–	–	> 10000
Cc1ccc2c3c(ccc(N(C)Cc4ccc(S(=O)(=O)c5ccc(N)cc5)cc4)c13)N=C2N	200	280	–	–	–	–	–	270
CN(Cc1ccc(S(=O)(=O)c2ccc(O)cc2)cc1)c1ccc2c3c(cccc13)C(=O)N2	9500	10000	–	–	–	–	–	9500
CNC1=Nc2ccc(N(C)Cc3ccc(S(=O)(=O)c4ccccc4)cc3)c3cccc1c23	3300	1600	–	–	–	–	–	3400
COc1ccc(S(=O)(=O)c2ccc(CN(C)c3ccc4c5c(ccc(C)c35)C(NO)=N4)cc2)cc1	5000	4100	–	–	–	–	–	> 10000
Cc1ccc2c3c(ccc(N(C)Cc4ccc(S(=O)(=O)c5ccc(N)cc5)cc4)c13)NC2=O	5000	3300	–	–	–	–	–	> 5000
O=C1Nc2ccc(N(CCO)Cc3ccc(S(=O)(=O)N4CCNCC4)cc3)c3cccc1c23	31000	50000	–	–	–	–	–	> 50000
CNC1=Nc2ccc(N(C)Cc3ccc(S(=O)(=O)c4ccc(OC)cc4)cc3)c3c(C)ccc1c23	890	720	–	–	–	–	–	1500
Cc1ccc2c3c(ccc(NCc4ccc(S(=O)(=O)c5ccccc5)cc4)c13)NC2=O	2500	2000	–	–	–	–	–	> 5000
O=C1Nc2ccc(N(CCCO)Cc3ccc(S(=O)(=O)N4CCNCC4)cc3)c3cccc1c23	15000	21500	–	–	–	–	–	30000
COc1ccc(S(=O)(=O)c2ccc(CN(C)c3ccc4c5c(cccc35)C(=O)N4)cc2)cc1	3000	4600	–	–	–	–	–	10000
CC(=O)c1cccc2c(N(C)Cc3ccc(S(=O)(=O)c4ccc(N)cc4)cc3)ccc(N)c12	5900	9100	–	–	–	–	–	> 10000
CNC1=Nc2ccc(N(C)Cc3ccc(S(=O)(=O)N4CCOCC4)cc3)c3c(C)ccc1c23	610	180	0.088	0.055	–	–	–	210
CN(Cc1ccc(S(=O)(=O)c2ccccc2)cc1)c1ccc2c3c(cccc13)C(NN)=N2	1300	2400	–	–	–	–	–	> 10000
Cc1ccc2c3c(ccc(N(C)Cc4ccc(S(=O)(=O)c5ccccc5)cc4)c13)N=C2N	360	250	–	–	3.85	–	–	520
CN(Cc1ccc(S(=O)(=O)N2CCOCC2)cc1)c1ccc2c3c(cccc13)C(=N)N2	460	490	5.4	1.8	–	0.015	0.012	900
CC(C)N(Cc1ccc(S(=O)(=O)N2CCNCC2)cc1)c1ccc2c3c(cccc13)C(=O)N2	6800	3900	–	–	–	–	–	5900

Now from value to compound, other results behind:

IC50 (CCRF-CEM) [nM]	IC50 (L1210) [nM]	Kii [1] [µM]	Kis [2] [µM]	Thymidylate shift [3]	Kii [4] [µM]	Kis [5] [µM]	SMILES	IC50 (GC3/MTK-) [nM]
2800	2000	–	–	–	–	–	CN(Cc1ccc(S(=O)(=O)c2ccc([N+](=O)[O-])cc2)cc1)c1ccc2c3c(cccc13)C(=O)N2	> 5000
690	570	–	–	–	–	–	Cc1ccc2c3c(ccc(N(C)Cc4ccc(S(=O)(=O)c5ccc([N+](=O)[O-])cc5)cc4)c13)N=C2N	910
2100	1200	–	–	–	–	–	COc1ccc(S(=O)(=O)c2ccc(CN(C)c3ccc4c5c(cccc35)C(N)=N4)cc2)cc1	2100
> 5000	> 5000	–	–	–	–	–	CN(Cc1ccc(S(=O)(=O)N2CCOCC2)cc1)c1ccc2c3c(cccc13)C(=O)N2	> 5000
> 5000	> 5000	–	–	–	–	–	CN(Cc1ccc(S(=O)(=O)N2CCOCC2)cc1)c1ccc2c3c(ccc(Cl)c13)C(=O)N2	> 5000
2700	2100	–	–	–	–	–	CN(Cc1ccc(S(=O)(=O)c2ccc(O)cc2)cc1)c1ccc2c3c(cccc13)C(N)=N2	4050
4000	2000	–	–	–	–	–	COc1ccc(S(=O)(=O)c2ccc(CN(C)c3ccc4c5c(ccc(C)c35)C(=O)N4)cc2)cc1	> 5000
3100	1900	–	–	–	–	–	CSc1ccc2c3c(ccc(N(C)Cc4ccc(S(=O)(=O)N5CCOCC5)cc4)c13)N=C2N	6900
2400	890	–	–	–	–	–	Cc1ccc2c3c(ccc(N(C)Cc4ccc(S(=O)(=O)c5ccc([N+](=O)[O-])cc5)cc4)c13)NC2=O	> 5000
> 4000	2300	–	–	–	–	–	O=C1Nc2ccc(NCc3ccc(S(=O)(=O)c4ccccc4)cc3)c3cccc1c23	> 4000
> 5000	1800	–	–	–	–	–	CNC1=Nc2ccc(N(C)Cc3ccc(S(=O)(=O)N4CCOCC4)cc3)c3cccc1c23	> 5000
3900	2600	–	–	–	–	–	Cc1ccc2c3c(ccc(N(C)Cc4ccc(S(=O)(=O)N5CCOCC5)cc4)c13)NC2=O	> 5000
> 3330	3050	–	–	–	–	–	CCN(Cc1ccc(S(=O)(=O)c2ccccc2)cc1)c1ccc2c3c(cccc13)C(=O)N2	3330
3100	2900	–	–	–	–	–	CCCN(Cc1ccc(S(=O)(=O)N2CCNCC2)cc1)c1ccc2c3c(cccc13)C(=O)N2	5400
2000	810	–	–	–	–	–	CN(Cc1ccc(S(=O)(=O)c2ccccc2)cc1)c1ccc2c3c(cccc13)C(NO)=N2	> 5000
> 4000	> 4000	–	–	–	–	–	CSC1Nc2ccc(N(C)Cc3ccc(S(=O)(=O)c4ccc(O)cc4)cc3)c3cccc1c23 (stereo unspecified)	> 4000
